Laboratory results as given in patent US20210261621A1, “Preparation of Dilipid Polymixins and Use Thereof as Antimicrobial Adjuvants” (priority 2018, published 2021).
“And” between values parts separate entries of the source, which are not always exact repeats. Equal entries are not always repeated. Where two headings read alike, the source gives them in different places. Positions of bridges follow the written chain, without caps; N, C: chain ends. Non-standard residues stand in square brackets, D forms with d. Residues, ends and D or L forms follow the SMILES beside them. *: point of attachment. Octanoyl = CCCCCCCC(=O)*; Dab = NCC[C@H](N)C(=O)O

How the values were obtained:
P. aeruginosa = assay: MIC comparison over the P. aeruginosa strains tested; assay type: cell-based, Pseudomonas aeruginosa; conditions: all eleven P. aeruginosa strains tested (Table 2)
Text: Specifically, addition of another lipid component to the amine side-chain of Dab1 reduced polymyxin's activity against Escherichia coli, P. aeruginosa, Stenotrophomonas maltophilia, A. baumannii, Klebsiella pneumoniae and Enterobacter cloacae. However, the reduction of activity against P. aeruginosa was not as drastic relative to other Gram-negative pathogens. […] We believe that this selectivity for P. aeruginosa is due to differences in exopolysaccharides and lipopolysaccharides between Gram-negative bacteria. This finding may imply the possibility of developing antipseudomonal polymyxins for pathogen-specific therapy.
The in vitro antibacterial activity of the compounds studied were assessed by broth microdilution susceptibility testing following CLSI guidelines. Bacterial cultures were grown overnight prior to the assay. The overnight grown cultures were diluted in saline to 0.5 McFarland turbidity, followed by 1:50 dilution in Mueller-Hinton broth (MHB) for inoculation to a final concentration of approximately 5×10^5 colony forming units/mL. Testing was performed on 96-well plates where the tested compounds were 2-fold serially diluted in MHB and incubated with equal volumes of bacterial inoculum at 37° C. for 18 h. […] Wells containing MHB with or without bacterial cells were used as positive or negative control, respectively.

P. aeruginosa PAO1 = test system: P. aeruginosa PAO1; set-up: MICDrug / MICDrug in combo / MIC of adjuvant in combo: unit not given beside the values

Compound: CCCCCCCC(=O)NCC[C@H](NC(=O)CCCCCCC)C(=O)N[C@H](C(=O)N[C@@H](CCN)C(=O)N[C@H]1CCNC(=O)[C@H]([C@@H](C)O)NC(=O)[C@H](CCN)NC(=O)[C@H](CCN)NC(=O)[C@H](CC(C)C)NC(=O)[C@@H](Cc2ccccc2)NC(=O)[C@H](CCN)NC1=O)[C@@H](C)O [Compound 2, Dioctanoic Acid (Di-C8) Polymyxin] (Octanoyl-[Dab](Octanoyl)T[Dab][Dab][Dab][dF]L[Dab][Dab]T; lactam 4-C)
- fold lower MIC than colistin (P. aeruginosa): 4-8 fold
- MIC of adjuvant alone (MIC1, MIC2, MIC3, MIC4, MIC5, MICPMBN) (P. aeruginosa PAO1; adjuvant alone, one value per checkerboard, in µg/mL): 8 and 4
- Interpretation (P. aeruginosa PAO1; combination with Aztreonam): Additive (An FIC index of ≤0.5, 0.5<x≤4, or >4 denotes for synergistic, additive or antagonistic interaction, respectively)
- Interpretation (P. aeruginosa PAO1; combination with Ceftazidime): Additive (An FIC index of ≤0.5, 0.5<x≤4, or >4 denotes for synergistic, additive or antagonistic interaction, respectively)
- Interpretation (P. aeruginosa PAO1; combination with Chloramphenicol): Synergy (An FIC index of ≤0.5, 0.5<x≤4, or >4 denotes for synergistic, additive or antagonistic interaction, respectively)
- Interpretation (P. aeruginosa PAO1; combination with Ciprofloxacin): Additive (An FIC index of ≤0.5, 0.5<x≤4, or >4 denotes for synergistic, additive or antagonistic interaction, respectively)
- Interpretation (P. aeruginosa PAO1; combination with Clindamycin): Synergy (An FIC index of ≤0.5, 0.5<x≤4, or >4 denotes for synergistic, additive or antagonistic interaction, respectively)
- Interpretation (P. aeruginosa PAO1; combination with Doripenem): Additive (An FIC index of ≤0.5, 0.5<x≤4, or >4 denotes for synergistic, additive or antagonistic interaction, respectively)
- Interpretation (P. aeruginosa PAO1; combination with Doxycycline): Additive (An FIC index of ≤0.5, 0.5<x≤4, or >4 denotes for synergistic, additive or antagonistic interaction, respectively)
- Interpretation (P. aeruginosa PAO1; combination with Fosfomycin): Additive (An FIC index of ≤0.5, 0.5<x≤4, or >4 denotes for synergistic, additive or antagonistic interaction, respectively)
- Interpretation (P. aeruginosa PAO1; combination with Gentamicin): Additive (An FIC index of ≤0.5, 0.5<x≤4, or >4 denotes for synergistic, additive or antagonistic interaction, respectively)
- Interpretation (P. aeruginosa PAO1; combination with Linezolid): Additive (An FIC index of ≤0.5, 0.5<x≤4, or >4 denotes for synergistic, additive or antagonistic interaction, respectively)
- Interpretation (P. aeruginosa PAO1; combination with Meropenem): Additive (An FIC index of ≤0.5, 0.5<x≤4, or >4 denotes for synergistic, additive or antagonistic interaction, respectively)
- Interpretation (P. aeruginosa PAO1; combination with Minocycline): Synergy (An FIC index of ≤0.5, 0.5<x≤4, or >4 denotes for synergistic, additive or antagonistic interaction, respectively)
- Interpretation (P. aeruginosa PAO1; combination with Moxifloxacin): Additive (An FIC index of ≤0.5, 0.5<x≤4, or >4 denotes for synergistic, additive or antagonistic interaction, respectively)
- Interpretation (P. aeruginosa PAO1; combination with Novobiocin): Synergy (An FIC index of ≤0.5, 0.5<x≤4, or >4 denotes for synergistic, additive or antagonistic interaction, respectively)
- Interpretation (P. aeruginosa PAO1; combination with Piperacillin): Additive (An FIC index of ≤0.5, 0.5<x≤4, or >4 denotes for synergistic, additive or antagonistic interaction, respectively)
- Interpretation (P. aeruginosa PAO1; combination with Pleuromutilin): Additive (An FIC index of ≤0.5, 0.5<x≤4, or >4 denotes for synergistic, additive or antagonistic interaction, respectively)
- Interpretation (P. aeruginosa PAO1; combination with Rifampicin): Additive (An FIC index of ≤0.5, 0.5<x≤4, or >4 denotes for synergistic, additive or antagonistic interaction, respectively)
- Interpretation (P. aeruginosa PAO1; combination with Streptomycin): Additive (An FIC index of ≤0.5, 0.5<x≤4, or >4 denotes for synergistic, additive or antagonistic interaction, respectively)
- Interpretation (P. aeruginosa PAO1; combination with Tobramycin): Additive (An FIC index of ≤0.5, 0.5<x≤4, or >4 denotes for synergistic, additive or antagonistic interaction, respectively)
- Interpretation (P. aeruginosa PAO1; combination with Trimethoprim): Additive (An FIC index of ≤0.5, 0.5<x≤4, or >4 denotes for synergistic, additive or antagonistic interaction, respectively)
- Interpretation (P. aeruginosa PAO1; combination with Vancomycin): Additive (An FIC index of ≤0.5, 0.5<x≤4, or >4 denotes for synergistic, additive or antagonistic interaction, respectively)
- MIC of adjuvant in combo (P. aeruginosa PAO1; in combination with Aztreonam): (4)
- MIC of adjuvant in combo (P. aeruginosa PAO1; in combination with Ceftazidime): (2)
- MIC of adjuvant in combo (P. aeruginosa PAO1; in combination with Chloramphenicol): (2)
- MIC of adjuvant in combo (P. aeruginosa PAO1; in combination with Ciprofloxacin): (4)
- MIC of adjuvant in combo (P. aeruginosa PAO1; in combination with Clindamycin): (2)
- MIC of adjuvant in combo (P. aeruginosa PAO1; in combination with Doripenem): (4)
- MIC of adjuvant in combo (P. aeruginosa PAO1; in combination with Doxycycline): (4)
- MIC of adjuvant in combo (P. aeruginosa PAO1; in combination with Fosfomycin): (4)
- MIC of adjuvant in combo (P. aeruginosa PAO1; in combination with Gentamicin): (0.125)
- MIC of adjuvant in combo (P. aeruginosa PAO1; in combination with Linezolid): (4)
- MIC of adjuvant in combo (P. aeruginosa PAO1; in combination with Meropenem): (4)
- MIC of adjuvant in combo (P. aeruginosa PAO1; in combination with Minocycline): (2)
- MIC of adjuvant in combo (P. aeruginosa PAO1; in combination with Moxifloxacin): (2)
- MIC of adjuvant in combo (P. aeruginosa PAO1; in combination with Novobiocin): (2)
- MIC of adjuvant in combo (P. aeruginosa PAO1; in combination with Piperacillin): (4)
- MIC of adjuvant in combo (P. aeruginosa PAO1; in combination with Pleuromutilin): (2)
- MIC of adjuvant in combo (P. aeruginosa PAO1; in combination with Rifampicin): (1)
- MIC of adjuvant in combo (P. aeruginosa PAO1; in combination with Streptomycin): (4)
- MIC of adjuvant in combo (P. aeruginosa PAO1; in combination with Tobramycin): (0.125)
- MIC of adjuvant in combo (P. aeruginosa PAO1; in combination with Trimethoprim): (4)
- MIC of adjuvant in combo (P. aeruginosa PAO1; in combination with Vancomycin): (4)
